Test results as given in US10328092B2, “Methods and compositions for treatment of drug addiction” (The Royal Institution for the Advancement of Learning / …, priority 2015, dated 2019).

Columns and labels:
Type in all cases: in vivo, mouse
mice [1] = assay: Cocaine-induced behavioural sensitization, locomotor response
Procedure: A cocaine induced behavioral sensitization animal model of drug addiction was used. Sensitization refers to the augmentation of behavioral responses to drugs of abuse that occurs during their repeated administration and persists long after drug exposure is discontinued. In this paradigm mice are injected with 15 mg/kg cocaine and put in an open field box and measure the cocaine stimulatory effects on locomotor for 15 min. After the first run mice are injected with 10 ug of MPL and returned to their home cage.
The response of mice to repeated doses of cocaine was compared. After habituating animals to handling, the animals receive an IP injection and have their locomotor activity monitored in open-field chambers using Ethovision software for 15 min. After two days of saline injections, mice received five daily injections of cocaine (15 mg/kg) and assayed for locomotion. Following 7-10 days without injections (withdrawal), mice receive a challenge dose of cocaine (also 15 mg/kg) and locomotor activity again assessed (see Examples 1 and 2). A minimum of three separate cohorts have been run.
(§1) Locomotion was monitored in 30×30 cm plexiglass boxes by the EthoVision video-tracking system (Noldus) and performed near the end of the light phase of the light-dark cycle under dim red light. After habituating animals to handling, mice received IP injections of saline or cocaine and their activity was recorded for 15 min. Mice were tested during habituation to injection and the activity boxes (saline; days 1-2) and 5 repeated cocaine injections (15 mg/kg; days 3-7). Following 10 days without injections (withdrawal), mice receive a challenge dose of cocaine (15 mg/kg) and locomotor activity again assessed (day 17). Total distance traveled and stereotypy were evaluated from video by EthoVision. For stereotypy, the frequency of which the mouse stops moving (#pauses/min) was measured using a threshold start velocity of 2.00/second and a threshold stop velocity of 0 cm/s. The number of turns per minute (# turns/min) was measured by calculating the frequency for which the path of the mouse turns over a minimum distance of 3.00 cm. Velocity was assessed as the mean distance traveled (cm) over time (s).
Mice were treated for […] with saline (1,2), then 5 consecutive days with 15 mg/kg cocaine (3-7). Animals then underwent a 9 day withdrawal period from cocaine. On day 9, they received an injection of saline or 50 μg/kg of LPS. 24 hours later, the mice were retested for the locomotor response in terms of distance (cm) traveled in 15 minutes.

mice [2] = assay: Stereotypic responses to cocaine (pausing, turning, velocity); settings: MPLA 10 μg or 50 μg, response to cocaine
Procedure: as §1

TNFα mRNA = tested on: TNFα mRNA
Procedure: For tissue, total RNA from the ventral striatum was extracted and isolated by RNAqueous-4PCR total RNA isolation kit (Ambion, AM1914), according to manufacturer's instructions. For microglia and astrocyte cultures, total RNA was isolated by RNeasy kit (Qiagen, 74136). For all sample types, 0.5 μg of total RNA was used for cDNA synthesis with Quantitect Reverse Transcription Kit (Qiagen, 205313), and quantitative RT-PCR was performed with Fast SYBR-Green Master Mix (Applied Biosystems) detected by StepOne Plus RealTime PCR system (Applied Biosystems). The sequences of qPCR primers used for mRNA quantification in this study were obtained from Integrated DNA Technologies, and are as follows: mouse TNFα forward, […] (SEQ ID NO: 1) [200 nM]; mouse TNFα reverse, […] (SEQ ID NO: 2) [200 nM]; mouse GAPDH forward, […] (SEQ ID NO: 3) [300 nM]; mouse GAPDH reverse, […] (SEQ ID NO: 4) [300 nM]; rat TNFα forward, […] (SEQ ID NO: 1) [600 nM]; rat TNFα reverse, […] […] After 40 cycles, the Ct values were determined. To normalize the samples, ΔCt between TNFα and GADPH or cyclophilin Ct values was calculated. The x-fold difference in expression between the different treatments was then determined by subtraction of the ΔCt values and termed ΔΔCt. Finally, the total change was calculated as 2-ΔΔct and the relative amount compared with control samples was deducted.

| Compound | initial response to cocaine challenge dose (mice [1]; 7 daily saline injections, 9 days abstinence, MPLA 10 μg, cocaine 15 mg/kg next day) | locomotor response to a challenge dose of cocaine (mice [1]; TNFα−/− mice, MPLA 10 μg) | behavioral sensitization to cocaine (mice [1]; TNFα−/− mice, MPLA 10 ug IP after first cocaine 15 mg/kg, re-tested one day later) | behavioral response to cocaine (mice [1]; WT mice, 10 days withdrawal, single MPLA 10 μg, tested 4 days later) | behavioral (locomotor) response to cocaine challenge (mice [1]; wildtype mice after withdrawal, MPLA 10 μg or 50 μg, tested 24 hours later, cocaine 15 mg/kg) | behavioral sensitization to cocaine vs saline treated mice (mice [1]; wildtype mice, MPLA 10 ug IP after first cocaine 15 mg/kg, re-tested 24 hours later) | mean velocity (mice [2]) | pausing (mice [2]) | turning behaviour (mice [2]) | increase of TNFα mRNA in microglia cells (TNFα mRNA; 5 daily injections of cocaine, striatum CD11b+ fraction) | decrease in TNFα mRNA in non-microglial cells (TNFα mRNA; five daily cocaine treatments, other striatal cell types) |
| --- | --- | --- | --- | --- | --- | --- | --- | --- | --- | --- | --- |
| monophosphoryl lipid A [MPLA] | did not alter | did not reduce | no effect | did not reduce | dose dependently reduced | reduced | significant decreases | slight increase | significant decreases | – | – |
| COC(=O)[C@H]1[C@@H](OC(=O)c2ccccc2)C[C@@H]2CC[C@H]1N2C [cocaine] | – | – | – | – | – | – | – | – | – | ~2.5 fold | 3.26±0.21 fold |
